The record followed here is US11806366B2, “Peptides and combination of peptides for use in immunotherapy against epithelial ovarian cancer and other cancers” (Immatics Biotechnologies GmbH, priority 2015, dated 2023).

This test has as its system CD8 T cells from blood of healthy donors. Put plainly: Immunogenicity analysis of HLA class I ligands: aAPC priming of CD8 T cells, MHC-multimer staining. In kind it is cell-based, human. As to conditions: immunogenicity of MUC16/CA-125 ligands, HLA allotype as in Table 11. The procedure: Priming of peptide specific cytotoxic lymphocytes (CTLs) was conducted using an established protocol involving artificial antigen presenting cells (aAPCs) (30). aAPCs consisted of streptavidin-coated polystyrene beads (5.6 μm in diameter; Bangs Laboratories, Fishers, Ind.). […] T cells were isolated from whole blood of healthy donors using a CD8 magnetic cell isolation kit (Miltenyi). One million T-cells per well were cultured in 96 well plates (Corning, Corning, N.Y., USA) and stimulated with the same number of loaded aAPCs in the presence of 5 ng/ml IL-12 (PromoCell, Heidelberg, Germany). T cells were stimulated 3 times in total with weekly stimulation interval. 40 U/ml IL-2 was added 2 days subsequent to each stimulation. T-cell priming was assessed by MHC-multimer staining one week after the last stimulation round.
For the applicability of peptide vaccines immunogenicity is a major imperative. In order to evaluate the immunogenic potential of the identified HLA ligands the inventors used a T-cell priming protocol involving artificial antigen presenting cells and T cells isolated from blood of healthy donors. […] This nearly 80% recognition rate verifies the presence of naïve MUC16 recognizing T cells in the human population. Similar results have been obtained for other TOP100 antigens (e.g. IDO1, LGALS1).
In the case of “2 (STETSTVLY; listed as Homo sapiens) [compound 2]”, the positive/tested donors is recorded as 0/2. For “5 (AVTNVRTSI; listed as Homo sapiens) [compound 5]” the value was 1/3; for “7 (DALVLKTV; listed as Homo sapiens) [compound 7]”, 1/3; for “8 (DPYKATSAV; listed as Homo sapiens) [compound 8]”, 3/3. For “10 (ERSPVIQTL; listed as Homo sapiens) [compound 10]” the value was 1/2. With “11 (ETILTFHAF; listed as Homo sapiens) [compound 11]”, the positive/tested donors is on record as 2/2. For “12 (EVISSRGTSM; listed as Homo sapiens) [compound 12]” the value was 1/3. As to “13 (EVITSSRTTI; listed as Homo sapiens) [compound 13]”, the positive/tested donors is 1/1. For “14 (EVTSSGRTSI; listed as Homo sapiens) [compound 14]” the value was 2/3; for “18 (FQRQGQTAL; listed as Homo sapiens) [compound 18]”, 1/6; for “23 (GTSGTPVSK; listed as Homo sapiens) [compound 23]”, 0/5. For “34 (LPHSEITTL; listed as Homo sapiens) [compound 34]” the value was 0/2; for “48 (SPHPVTALL; listed as Homo sapiens) [compound 48]”, 0/1; for “50 (SPQNLRNTL; listed as Homo sapiens) [compound 50]”, 1/1. In the case of “53 (SPSKAFASL; listed as Homo sapiens) [compound 53]”, the positive/tested donors was 2/2. As for “56 (SQGFSHSQM; listed as Homo sapiens) [compound 56]”, the positive/tested donors is on record as 4/5.

“62 (STSQEIHSATK; listed as Homo sapiens) [compound 62]”: the positive/tested donors was 2/6. For the substance “63 (SVLADLVTTK; listed as Homo sapiens) [compound 63]”, the positive/tested donors is recorded as 0/1.

With “72 (TPGNRAISL; listed as Homo sapiens) [compound 72]”, the positive/tested donors is given as 2/2. For “77 (VPRSAATTL; listed as Homo sapiens) [compound 77]” the value was 1/2; for “547 (IITEVITRL; listed as Homo sapiens) [compound 547]”, 3/10.

As for “548 (KMISAIPTL; listed as Homo sapiens) [compound 548]”, the positive/tested donors is 4/6. For “549 (TYSEKTTLF; listed as Homo sapiens) [compound 549]” the value was 2/2.
